For seven compounds, Ki results are on record in patent publication US6897213B1, “Heterocycles as cholecystokinin (CCK) ligands” (Warner-Lambert Company, priority 1995, dated 2005).

Broadly, the pKi is the Ki on a negative log10 scale, so that one unit is a factor of ten. Higher therefore signals a low Ki.

pKi: −log10 of the molar value.

The target of one test is T1, CCK-A receptor (Homo sapiens, UniProt P32238).
T1 sequence (P32238 1-428): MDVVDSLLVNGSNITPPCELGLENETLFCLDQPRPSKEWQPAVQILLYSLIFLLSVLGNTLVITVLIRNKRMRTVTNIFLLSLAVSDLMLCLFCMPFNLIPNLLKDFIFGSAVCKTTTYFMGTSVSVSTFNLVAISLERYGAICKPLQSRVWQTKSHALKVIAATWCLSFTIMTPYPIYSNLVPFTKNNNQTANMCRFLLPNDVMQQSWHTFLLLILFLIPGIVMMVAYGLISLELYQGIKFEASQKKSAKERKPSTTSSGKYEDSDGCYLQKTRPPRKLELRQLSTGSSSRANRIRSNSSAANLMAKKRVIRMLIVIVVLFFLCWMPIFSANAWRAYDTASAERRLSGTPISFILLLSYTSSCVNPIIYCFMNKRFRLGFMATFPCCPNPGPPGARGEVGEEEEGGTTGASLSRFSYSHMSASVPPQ
In words: CCK-A receptor binding affinity. An excerpt:
(§1) The following table represents the CCK-A and CCK-B receptor binding affinities of the compounds.
(§2) The testing procedures are disclosed in Hays et al, Neuropeptides 1:53-62, 1980; and Satuer et al, Science 208:1155-1156, 1980.

A further test deals with T2, CCK-B receptor (Mus musculus, UniProt P56481).
T2 construct: from tissue; host or cells: mouse (male CFLP) cerebral cortex membranes
T2 sequence (P56481 1-453): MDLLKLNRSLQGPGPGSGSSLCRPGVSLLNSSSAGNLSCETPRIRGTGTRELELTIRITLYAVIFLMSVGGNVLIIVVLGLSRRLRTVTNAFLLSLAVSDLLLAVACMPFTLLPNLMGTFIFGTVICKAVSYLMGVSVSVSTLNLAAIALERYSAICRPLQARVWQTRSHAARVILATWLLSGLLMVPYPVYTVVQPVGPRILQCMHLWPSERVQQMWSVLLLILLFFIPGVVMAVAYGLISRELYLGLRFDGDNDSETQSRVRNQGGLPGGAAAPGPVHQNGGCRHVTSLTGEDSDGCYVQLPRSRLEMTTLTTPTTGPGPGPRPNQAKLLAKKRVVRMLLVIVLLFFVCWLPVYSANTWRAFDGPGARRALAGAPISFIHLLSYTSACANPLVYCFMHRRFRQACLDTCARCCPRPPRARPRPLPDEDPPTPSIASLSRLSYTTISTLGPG
Description: CCK-B receptor binding affinity (tritiated-pentagastrin displacement, mouse cerebral cortical membranes). To be noted: 2 nM tritiated-pentagastrin, Ki by Cheng-Prusoff. On the procedure: The biological activity of compounds of the present invention may be evaluated by employing an initial screening test which rapidly and accurately measures the binding of the tested compound to known CCK receptor sites. […] (See Hays et al, Neuropeptides 1:53-62, 1980; and Satuer et al, Science 208:1155-1156, 1980).
In this screening test, the cerebral cortices taken from male CFLP mice weighing between 30-40 g were dissected on ice, weighed, and homogenized in 10 volumes of 50 mM Tris-HCl buffer (pH 7.4 at 0-4° C.). The resulting suspension was centrifuged, the supernate was discarded, and the pellet was washed by resuspension in Tris-HCl buffer followed by recentrifugation. The final pellet was resuspended in 20 volumes of […] buffer (pH 7.2 at 23° C.) containing 130 mM NaCl, […], […], 1 […].
In saturation studies, cerebral cortical membranes were incubated at 23° C. for 120 minutes in a final volume of 500 μL of Hepes incubation buffer (pH 7.2) together with 0.2-20 nM tritiated—pentagastrin (Amersham International, England).
In the displacement experiments, membranes were incubated with a single concentration (2 nM) of ligand, together with increasing concentrations (10^11 to 10^14 M) of competitive test compound. In each case, the nonspecific binding was defined as that persisting in the presence of the unlabeled octapeptide CCK26-33 (10^−6M).
Following incubation, radioactivity bound to membranes was separated from that free in solution by rapid filtration through Whatman GF/B filters and washed three times with 4 mL of ice cold Tris-HCl buffer. Filters from samples incubated with tritiated-pentagastrin were placed in polyethylene vials with 4 mL of scintillation cocktail, and the radioactivity was estimated by liquid scintillation spectrometry (efficiency 47-52%).
The specific binding to CCK receptor sites was defined as the total bound tritiated-pentagastrin minus the amount of tritiated-pentagastrin bound in the presence of 10^−6 octapeptide, CCK26-33.
Saturation curves for specific tritiated-pentagastrin binding to mouse cortical membranes were analyzed by the methods of Scatchard (Ann. New York Acad. Sci. 51:660-672, 1949, and Hill (J. Physiol. 40:IV-VIII, 1910), to provide estimates for the maximum number of binding sites (Bmax) and the equilibrium dissociation constant (Ka).
In displacement experiments, inhibition curves were analyzed by either logit-log plots or the iterative curve fitting computer program ALLFIT (DeLean, Munson and Redbard, 1978) to provide estimates of the IC50 and nH (apparent Hill coefficient values).
The inhibition constant (Ki) of the test compound was then calculated according to the Cheng-Prusoff equation: [formula] where [L] is the concentration of radiolabel and Ka is the equilibrium dissociation constant.
The Ki values for several representative compounds of the present invention are present in Table I.
as §1, §2

Turning to `CC(C)Oc1cccc(-n2c(NNC(=O)Nc3ccc(Cl)cc3)nc3ccccc3c2=O)c1` [No. 13, Hydrazinecarboxamide, N-(4-Chlorophenyl)-2-[3,4-dihydro-3-[3-(1-methylethoxy)phenyl]-4-oxo-2-quinazolinyl]], the pKi on CCK-A receptor was 5.44; at CCK-B receptor, 7.89.

Regarding `CC(C)Oc1cccc(-n2c(NNC(=O)Nc3cccc(C(=O)OC(C)(C)C)c3)nc3ccccc3c2=O)c1` [No. 7], the pKi on CCK-A receptor was 5.45; at CCK-B receptor it was 8.70.

`CC(C)Oc1cccc(-n2c(NNC(=O)Nc3cccc(C#N)c3)nc3ccccc3c2=O)c1` [No. 14, Hydrazinecarboxamide, N-(3-cyanohenyl)-2-[3,4-dihydro-3-[3-(1-methylethoxoy)phenyl]-4-oxo-2-quinazolinyl]-]: the negative logarithm of the Ki (pKi) on CCK-A receptor was 5.27; on CCK-B receptor it was 8.92.

Turning to `CC(C)Oc1cccc(-n2c(NNC(=O)NC3CCCCC3)nc3ccccc3c2=O)c1` [No. 15, Hydrazinecarboxamide, N-(cyclohexyl)-2-[3,4-dihydro-3-[3-(1-methylethoxy)phenyl]-4-oxo-2-quinazolinyl]-], the pKi at CCK-A receptor is 4.75; on CCK-B receptor, 6.98.

In the case of `CC(C)Oc1cccc(-n2c(NNC(=O)Nc3ccc(Br)cc3)nc3ccccc3c2=O)c1` [No. 1, Hydrazinecarboxamide, N-(4-bromophenyl)-2-[3,4-dihydro-3-[3-(1-methylethoxy)-phenyl]-4-oxo-2-quinazolinyl]-], the figures for the pKi on CCK-A receptor and on CCK-B receptor were 5.46 and 7.80, respectively.

With `CCOC(=O)c1cccc(NC(=O)NNc2nc3ccccc3c(=O)n2-c2ccc(Cl)c(Cl)c2)c1` [No. 21], the negative-log Ki (pKi) at CCK-A receptor was 5.76; on CCK-B receptor, 7.27.

In the case of `CN(C)c1cccc(-n2c(NNC(=O)Nc3cccc(C#N)c3)nc3ccccc3c2=O)c1` [No. 40], the negative-log Ki (pKi) on CCK-A receptor is 5.24; at CCK-B receptor, 7.74.
